Columns and labels:
[1] = target: T1, ATP-sensitive potassium channels in vascular smooth muscles (Rattus norvegicus, UniProt Q63563); assay: Association kinetics of [^3H]P1075 binding in aortic rings; parameters: species or system Wistar rat; settings: 37° C.; drug M: Compound 1 10^−4, Glibencamide 10^−5, ATP 10^−2, ADP 10^−3, UDP 5 × 10^−5, GTP 10^−3, Ade 10^−3; control 4.36 ± 0.45; means ± SD, n = 4~10
T1 construct: The aorta was cut into about 3-5 mm arterial rings and the vascular endothelium was scraped off; from tissue; host or cells: endothelium-removed aortic rings of male Wistar rats
Text: (§1) Biological activity experiment 4. Allosteric regulation of novel compounds on ATP-sensitive potassium channels in vascular smooth muscles.
(§2) To study the allosteric regulation of compound 1 on ATP-sensitive potassium channels in vascular smooth muscles, the radio-labled-ligand was used in the biological activity experiment 4.
(§3) 1. The allosteric regulation of compound 1 on the binding sites for the selective KATP blocker glibenclamide in vascular smooth muscles was studied as follows: After decapitated, the male Wistar rat (340±20 g) was immediately incised open the thoracic cavity. The aorta was dissected and immersed in the 4° C. buffer containing 10 mM HEPES to wash off the blood, then carefully extirpated the fat, peripheral connective tissues and thrombus. The aorta was cut into about 3-5 mm arterial rings and the vascular endothelium was scraped off with wet tampon. The arterial rings were blotted, weighted and transferred into the tubes containing proper amount of ice colded physiological saline buffer. In the association kinetics experiment, the arterial circles in the tubes were incubated with, compound 1(10^−4M), pinacidil(10^−4M), ATP(10^−2M), ADP(10^−3M), Ade(10^−3M), ADP(5×10^−5M) and equal volume of buffer respectively for 10 min in 25° C. water bath, and then added [^3H]-glibenclamide(3 nM). At 5,10,15,20,30,60,90 and 120 min after incubation, 9 mL ice colded Tris buffer (50 mM) was added to terminate the reaction. After washing off the free and bound [^3H]-glibenclamide, the aorta was blotted, transferred to a scintillator, added 50 uL 30% H2O2 and reacted for 2 h at 80° C. After cooling, 2.5 mL ethyl glycol and 5 mL 1% B-BPD xylene were added in sequence, kept stationary for 8 h and measured under a scintillometer for cpm value. The resulting data were fit into a regression line with In[BEQ/(BEQ-Bt)]vs.t and the parameters for association kinetics were obtained. In the disassociation kinetics experiments, the aorta treated as described above and [^3H]-glibenclamide were incubated for 60 min at 25° C., and then 30 uM glibenclamide was added. 0,5,15,30,60,90 and 120 min later, the cpm values for the complex of [^3H]-glibenclamide and KATP were measured. The resulting data were fit into a regression line with In(B/BEQ)]vs.t and the parameters for disassociation kinetics were obtained. 2. The allosteric regulation of compound 1 on the binding sites for the selective KATP activator P1075 in vascular smooth muscles was studied with the method as described above, but some conditions should be changed as follows: the incubation temperature was 37° C. instead of 25° C.;P1075 was used instead of glibenclamide; In the association kinetics experiments, the time points for sampling were 5,10,15,20,30,45,60 and 90 min, while in the disassociation kinetics experiments, that were 1,3,5,10,20,30,45 and 60 min. Biological activity experiment 5. The effects of compound 1 on the specific binding of high selective activator [^3H]P1075 with ATP-sensitive potassium channels in vascular smooth muscles.

[2] = target: T1, ATP-sensitive potassium channels in vascular smooth muscles; assay: Association and dissociation kinetics of [^3H]glibenclamide binding in aortic rings; parameters: species or system Wistar rat; settings: drug M: compound 1 10^−4, pinacidil 10^−4, ATP 10^−2, ADP 10^−3, UDP 5 × 10^−3, Ade 10^−3; for Dissociation kinetics k2 of [^3H]glibenclamide binding / Association kinetics k1 of [^3H]glibenclamide binding / Association kinetics kobs of [^3H]glibenclamide binding / Association kinetics kA of [^3H]glibenclamide binding: 25° C.; for Dissociation kinetics k2 of [^3H]glibenclamide binding: control 0.72 ± 0.11; for Dissociation kinetics Kd of [^3H]glibenclamide binding in presence of the drug: Kd of the radioligand, not of the drug, control 0.55 ± 0.14; for Association kinetics k1 of [^3H]glibenclamide binding / Association kinetics kobs of [^3H]glibenclamide binding / Association kinetics kA of [^3H]glibenclamide binding: [^3H]-glibenclamide 3 nM; for Association kinetics k1 of [^3H]glibenclamide binding: control 1.31 ± 0.14; for Association kinetics kobs of [^3H]glibenclamide binding: control 4.65 ± 0.37, means ± SD, n = 4~10; for Association kinetics kA of [^3H]glibenclamide binding: control 181.90 ± 46.90
Text: as §1, §2
as §3, with “In the association kinetics experiment, the arterial circles in the tubes were incubated with, compound 1(10^−4M), pinacidil(10^−4M), ATP(10^−2M), ADP(10^−3M), Ade(10^−3M), ADP(5×10^−5M) and equal volume of buffer respectively for 10 min in 25° C. water bath, and then added [^3H]-glibenclamide(3 nM).” left out

[3] = tested on: outward potassium currents of rat tail arterial SMCs; assay: Whole cell recording of outward potassium currents in rat tail arterial SMCs; type: cell-based, Wistar rats; settings: X ± SD n = 5
Text: Biological activity experiments 6. The effects of novel compounds on potassium currents in isolated arterial vascular smooth muscle cells (SMCs).
The outward currents were, elicited in rat tail arterial SMCs by superfusing extracellular solution under whole cell recording configuration that the depolarizing pulse were applied from −30 mV to +100 mV with the holding potential of −40 mV in 100 ms, 10 mV clamp steps, a frequency of 5 KHz. The compounds were applied in the bath at the concentrations of 100 μmol L^−1. The amplitude of the outward potassium currents was recorded before and after compound application Values were expressed as means±SD. Statistical significance between two groups was evaluated by student's t-test for paired data * P<0.05 **P<0.01 vs control.
1. Preparation of single smooth muscle cells from rat tail arteries: Male Wistar rats (200-250 g) were killed by exsanguination. The tail artery was dissected out and transferred into cold physiological salt solution (PSS) of the following composition (in mM): NaCl 118.3, KCl 4.7, KH2PO4 1.2, MgSO4 1.2, NaHCO3 25.0, CaCl2 2.5, EDTA 0.026 and Glucose 5.0 pH7.4. With the use of a dissecting microscope, the connective tissues were removed and the artery was cut open longitudinally. Endothelium was removed carefully with a cotton swab then the artery was cut into segments with 1 mm long and placed in 4° C. the extracellular solution containing (in mM) NaCl 130, KCl 5, MgCl2 1.2, HEPES 10, Glucose 10, pH7.2 for 20 min. After this incubation, the medium was changed to enzyme solution which was composed of collagenase I (1 mg ml^−1), papain (5 mg ml^−) and bovine serum albumin (2 mg ml^−1). The tissues, were incubated in this solution for 40 min, and then rinsed three times triturated using a fire-polished Pasteur pipette until the medium turned cloudily. The cell suspension was stored in the refrigerator at 4° C.
3. Whole cell recordings: A bath dish with the smooth muscle cells (SMCs) attached and superfused with the extracellular solution at a flow rate of 2 ml min^−1 was mounted onto the stage of an inverted-phase contrast microscope. The microelectrodes having a resistance of (5-8 MΩ) were made from boroscilicate thin-wall glass capillaries, using an automatic multiple-stage, electronic puller (PP830 Japan) and then heat-polished. After establishing a high resistance seal, the patch membrane was disrupted by negative pressure. A commercial patch clamp amplifier (Axon 200B) was used to generate and apply voltages and sample current signals from the cell.

[4] = tested on: rats anesthetized with pentobarbital sodium; assay: Effects on blood pressure, heart rate, cardiac contraction and dilation in rats anesthetized with pentobarbital sodium; type: in vivo, Wistar rats; parameters: unit not given here; settings: change after injection through femoral vein, '+' = increase, all others = decrease
Method: Biological activity experiment 1. The effects of 16 compounds represented by formula I on blood pressure, heart rate, cardiac contraction and dilation in rats anesthetized with pentobarbital sodium.
The methods of biological activity experiment 1 were as follows: Male Wistar rats, weighing 280±30 g were purchased from the experimental animal center of Academy of Military Medical Sciences. Rats were anesthetized with pentobarbital sodium (45 mg/kg) by peritoneal injection. A PE50 polyethylene catheter was inserted into the left ventricle through right carotid artery for cardiac function measurement with a pressure energe exchanger, wherein the signal is put into a SMUP-PC biosignal processing system. Cardiac functional parameters such as HR, LVSP, +dp/dtmax, −dp/dtmax and Vpm were recorded. Another two PE50 polyethylene catheters were inserted into the right femoral artery and vein respectively for blood pressure measurement wherein the artery cathether was linked to a four-channel physiology recorder (RM-6000) through a MPU-0.5A Type pressure energe exchanger, which recorded SBP, DBP and MBP, while the vein catheter was used for compound administration. The methods were described by Liu Wei et al: Liu Wei, Wang Hai, Xiao Wen-Bin. […] Bull Acad Mil Med Sci 1996;20(4):245˜248.

[5] = target: T1, ATP-sensitive potassium channels in vascular smooth muscles; assay: Inhibition of specific binding of [^3H]P1075 in endothelium-removed rat aorta; parameters: species or system Wistar rat; settings: [^3H] P1075 5 nmol L^−1, 90 minutes at 37° C., endothelium-removed rat aorta
[6] = mean, n = 3~5, doses mg/kg: 2, 8, 12: 10, 3-7, 9-11, 40-44: 5

T1 sequence (Q63563 1-1545 isoform Q63563-2): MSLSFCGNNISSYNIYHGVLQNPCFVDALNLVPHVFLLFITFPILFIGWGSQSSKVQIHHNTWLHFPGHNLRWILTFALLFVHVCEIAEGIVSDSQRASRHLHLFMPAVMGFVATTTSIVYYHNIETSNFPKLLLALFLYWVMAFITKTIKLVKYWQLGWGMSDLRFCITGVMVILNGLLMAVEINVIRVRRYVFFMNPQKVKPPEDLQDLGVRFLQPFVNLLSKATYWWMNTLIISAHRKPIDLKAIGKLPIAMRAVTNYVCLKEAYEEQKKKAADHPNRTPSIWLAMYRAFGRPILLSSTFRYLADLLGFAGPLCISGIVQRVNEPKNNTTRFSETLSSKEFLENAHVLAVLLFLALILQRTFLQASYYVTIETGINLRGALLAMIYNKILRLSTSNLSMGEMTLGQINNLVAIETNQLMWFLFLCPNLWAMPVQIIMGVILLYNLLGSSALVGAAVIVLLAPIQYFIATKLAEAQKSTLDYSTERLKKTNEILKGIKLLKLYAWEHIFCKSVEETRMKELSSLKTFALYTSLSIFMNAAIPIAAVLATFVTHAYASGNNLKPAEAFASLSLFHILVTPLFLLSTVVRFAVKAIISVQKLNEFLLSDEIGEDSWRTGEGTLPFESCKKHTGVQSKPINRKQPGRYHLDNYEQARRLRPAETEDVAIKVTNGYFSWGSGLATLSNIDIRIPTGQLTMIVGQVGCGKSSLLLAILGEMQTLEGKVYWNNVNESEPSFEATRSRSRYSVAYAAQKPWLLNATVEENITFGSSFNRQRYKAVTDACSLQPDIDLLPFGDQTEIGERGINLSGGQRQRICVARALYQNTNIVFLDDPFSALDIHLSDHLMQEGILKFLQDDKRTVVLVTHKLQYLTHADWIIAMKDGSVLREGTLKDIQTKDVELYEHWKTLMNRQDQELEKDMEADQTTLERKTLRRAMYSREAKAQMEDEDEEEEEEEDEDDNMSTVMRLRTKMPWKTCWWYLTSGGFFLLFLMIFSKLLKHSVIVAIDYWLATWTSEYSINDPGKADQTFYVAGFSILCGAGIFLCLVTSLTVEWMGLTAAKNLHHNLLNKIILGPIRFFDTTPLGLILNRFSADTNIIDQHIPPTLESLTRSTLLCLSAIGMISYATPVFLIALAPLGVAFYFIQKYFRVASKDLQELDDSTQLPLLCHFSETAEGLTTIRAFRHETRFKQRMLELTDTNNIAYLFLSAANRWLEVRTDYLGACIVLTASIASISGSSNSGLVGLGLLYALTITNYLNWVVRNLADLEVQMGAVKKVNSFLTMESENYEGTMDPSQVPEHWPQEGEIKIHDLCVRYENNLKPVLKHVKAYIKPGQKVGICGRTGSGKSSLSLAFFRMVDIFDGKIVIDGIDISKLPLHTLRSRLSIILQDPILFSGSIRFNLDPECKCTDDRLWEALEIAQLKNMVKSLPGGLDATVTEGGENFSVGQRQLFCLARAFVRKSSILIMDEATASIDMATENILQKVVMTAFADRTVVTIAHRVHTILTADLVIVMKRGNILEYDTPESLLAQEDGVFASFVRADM
T1 sequence (Q63664 whole entry partner): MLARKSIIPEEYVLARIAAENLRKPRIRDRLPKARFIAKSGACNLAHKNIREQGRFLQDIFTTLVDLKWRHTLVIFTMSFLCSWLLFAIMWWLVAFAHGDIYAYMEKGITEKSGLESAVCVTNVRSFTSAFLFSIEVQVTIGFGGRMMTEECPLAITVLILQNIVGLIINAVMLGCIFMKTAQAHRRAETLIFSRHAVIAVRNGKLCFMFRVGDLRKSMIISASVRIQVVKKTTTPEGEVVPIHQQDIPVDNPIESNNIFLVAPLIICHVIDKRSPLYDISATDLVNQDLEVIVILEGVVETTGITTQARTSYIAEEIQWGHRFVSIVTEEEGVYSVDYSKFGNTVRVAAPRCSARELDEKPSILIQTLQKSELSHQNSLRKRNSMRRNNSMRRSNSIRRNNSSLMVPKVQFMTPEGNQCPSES

SMILES	Association kinetics kobs of [^3H]P1075 binding [1]	Dissociation kinetics k2 of [^3H]glibenclamide binding [2]	Dissociation kinetics Kd of [^3H]glibenclamide binding in presence of the drug [2] [µM]	Association kinetics k1 of [^3H]glibenclamide binding [2]	Association kinetics kobs of [^3H]glibenclamide binding [2]	Association kinetics kA of [^3H]glibenclamide binding [2]	other results
Nc1ncnc2c1ncn2[C@@H]1O[C@H](COP(=O)(O)OP(=O)(O)OP(=O)(O)O)[C@@H](O)[C@H]1O [ATP, adenosine triphosphate]	2.85 ± 0.08 ×10^−2 nM^−1 · min^−1	0.42 ± 0.14 ×10^2 nM^−1 · min^−1	0.00017 ± 6e-05	2.42 ± 0.34 ×10^−2nM^−1 · min^−1	7.69 ± 1.01 ×10^−2nM^−1 · min^−1	590.2 ± 208.20 ×10^−2nM^−1 · min^−1	
O=c1ccn([C@@H]2O[C@H](COP(=O)(O)OP(=O)(O)O)[C@@H](O)[C@H]2O)c(=O)[nH]1 [UDP]	5.53 ± 0.51 ×10^−2 nM^−1 · min^−1	0.80 ± 0.22 ×10^2 nM^−1 · min^−1	0.0007 ± 0.00024	1.15 ± 0.23 ×10^−2nM^−1 · min^−1	4.26 ± 0.65 ×10^−2nM^−1 · min^−1	143.50 ± 49.00 ×10^−2nM^−1 · min^−1	
CCCNC(C)(C)C(C)C [compound 5, N-propyl-2,3-dimethyl-2-butylamine]							Currents, + Compound ([3]; outward potassium current amplitude after compound 100 μmol L^−1 in the bath): 0.67 ± 0.30 nA; Currents, Control (before compound application) ([3]; outward potassium current amplitude before compound application, same cells): 0.65 ± 0.30 nA; MBP: mean blood pressure ([4]; n = 3~5, doses mg/kg: 2, 8, 12: 10, 3-7, 9-11, 40-44: 5): 28; DBP: diastolic blood pressure [4, 6]: 25; HR: heart rate [4, 6]: 78; LVSP: left ventricular systolic pressure [4, 6]: 162; SBP: systolic blood pressure [4, 6]: 34; Vpm: the physiological velocity of contractile element shorting [4, 6]: 0.58; −dp/dtmax: the maximal rate of the decrease of left ventricular pressure [4, 6]: 187; melting point: 183 to 185 °C

Now from value to compound, other results behind:

Association kinetics kobs of [^3H]P1075 binding [1]	Dissociation kinetics k2 of [^3H]glibenclamide binding [2]	Dissociation kinetics Kd of [^3H]glibenclamide binding in presence of the drug [2] [µM]	Association kinetics k1 of [^3H]glibenclamide binding [2]	Association kinetics kobs of [^3H]glibenclamide binding [2]	Association kinetics kA of [^3H]glibenclamide binding [2]	SMILES	other results
2.63 ± 0.48 ×10^−2 nM^−1 · min^−1	0.94 ± 0.10 ×10^2 nM^−1 · min^−1	0.00209 ± 0.00112	0.45 ± 0.24 ×10^−2nM^−1 · min^−1	2.28 ± 0.70 ×10^−2nM^−1 · min^−1	47.80 ± 25.70 ×10^−2nM^−1 · min^−1	Nc1ncnc2c1ncn2[C@@H]1O[C@H](COP(=O)(O)OP(=O)(O)O)[C@@H](O)[C@H]1O [ADP]	
3.12 ± 0.17 ×10^−2 nM^−1 · min^−1						COc1ccc(Cl)cc1C(=O)NCCc1ccc(S(=O)(=O)NC(=O)NC2CCCCC2)cc1 [glibenclamide, reference compound]	IC50 [5]: 58.9 ± 4.6 µM; Ki ([5]; read-out: pKi for inhibition of specific binding of [^3H]P1075 (converted)): 58.9 µM

Source: patent US7560473B2 (Institute of Pharmacology and Toxicology Academy of …, priority 2001, dated 2009)
